# Like-named read-outs stand apart in the source and are kept apart here.
# How the values were obtained:
# EGFR [1] = molecular target: T1, EGFR (Homo sapiens, UniProt P00533); set-up: 645–1186; His6 (N); made in house; host or cells: Sf-9 insect cells (baculovirus; pBlueBacHis2B / pFASTBacHTc); method as in doi:10.1016/j.molstruc.2023.136953; settings: earlier study of the authors; cited from earlier work
# [2] = test system: four human cancer cell lines; set-up: method as in doi:10.1016/j.molstruc.2023.136953; settings: earlier study of the authors; read-out: GI50 against the four cancer cell lines; cited from earlier work
# lung cancer (A-549) = assay: Antiproliferative assay, A-549; format: cell-based; settings: Homo sapiens, A549; A-549 lung cancer cell line; read-out: Antiproliferative activity IC50 ± SEM (nM) A-549
# Description: (§1) 4.2.2. Assay for antiproliferative effect
# (§2) To explore the antiproliferative potential of compounds propidium iodide fluorescence assay was performed using different cell lines such as Panc-1 (pancreas cancer cell line), MCF-7 (breast cancer cell line), HT-29 (colon cancer cell line) and A-549 (epithelial cancer cell line), respectively. To calculate the total nuclear DNA, a fluorescent dye (propidium iodide, PI) is used which can attach to the DNA, thus offering a quick and precise technique. PI cannot pass through the cell membrane and its signal intensity can be considered as directly proportional to quantity of cellular DNA. Cells whose cell membranes are damaged or have changed permeability are counted as dead ones. The assay was performed by seeding the cells of different cell lines at a density of 3000-7500 cells/well (in 200μl medium) in culture plates followed by incubation for 24h at 37 °C in humidified 5%CO2/95% air atmospheric conditions. The medium was removed; the compounds were added to the plates at 10 μM concentrations (in 0.1% DMSO) in triplicates, followed by incubation for 48h. DMSO (0.1%) was used as control. After incubation, medium was removed followed by the addition of PI (25 μl, 50μg/mL in water/medium) to each well of the plates. At -80 °C, the plates were allowed to freeze for 24 h, followed by thawing at 25 °C. A fluorometer (Polar-Star BMG Tech) was used to record the readings at excitation and emission wavelengths of 530 and 620 nm for each well. The percentage cytotoxicity of compounds was calculated using the following formula:
# (§3) Where ATC= Absorbance of treated cells and AC= Absorbance of control. Erlotinib was used as positive control in the assay. […]
# (1 picture or pasted object on this page, not shown here)
# colon cancer (HT-29) = assay: Antiproliferative assay, HT-29; format: cell-based; settings: Homo sapiens; HT-29 colon cancer cell line; read-out: Antiproliferative activity IC50 ± SEM (nM) HT-29
# Description: as §1, §2, §3
# [3] = Cell viability assay (MTT) on MCF-10A normal cell line; format: cell-based; settings: human, MCF-10A mammary gland epithelial normal cells, MCF-10A cells, 50 μM of each compound, four days of incubation
# Description: The human mammary gland epithelial (MCF-10A) normal cell line was used to examine the viability effects of new derivatives 5a–l using the MTT test.[33,34] Refer to Appendix A for more details.
# The human mammary gland epithelium (MCF-10A) normal cell line was employed to evaluate the viability effects of novel derivatives 5a–l. The cell viability of 5a–l was assessed via the MTT assay following four days of incubation with 50 μM of each compound on MCF-10A cells.[33,34] […]
# 4.2. Biological evaluation
# 4.2.1 Cell Viability assay (MTT assay)
# MTT assay was performed to investigate the effect of the synthesized compounds on mammary epithelial cells (MCF-10A). The cells were propagated in medium consisting of Ham's F-12 medium/ Dulbecco's modified Eagle's medium (DMEM) (1:1) supplemented with 10% foetal calf serum, 2 mM glutamine, insulin (10 μg/mL), hydrocortisone (500 ng/mL) and epidermal growth factor (20 ng/mL). Trypsin ethylenediamine tetra acetic acid (EDTA) was used to passage the cells after every 2-3 days. 96-well flat-bottomed cell culture plates were used to seed the cells at a density of 10^4 cells mL-1. The medium was aspirated from all the wells of culture plates after 24 h followed by the addition of synthesized compounds (in 200 μL medium to yield a final concentration of 0.1% (v/v) dimethyl sulfoxide) into individual wells of the plates. Four wells were designated to a single compound. The plates were allowed to incubate at 37°C for 96 h. Afterwards, the medium was aspirated and 3-[4,5-dimethylthiazol-2-yl]-2,5-diphenyltetrazolium bromide (MTT) (0.4 mg/mL) in medium was added to each well and subsequently incubated for 3 h. The medium was aspirated and 150 μL dimethyl sulfoxide (DMSO) was added to each well. The plates were vortexed followed by the measurement of absorbance at 540 nm on a microplate reader. The results were presented as inhibition (%) of proliferation in contrast to controls comprising 0.1% DMSO. […]
# HER-2 [4] = molecular target: T2, HER-2 (Homo sapiens, UniProt P04626); assay: HER-2 inhibitory assay (ADP-Glo kinase assay); format: biochemical; settings: read-out: HER-2 inhibition IC50 ± SEM
# T2 construct: purchased Abcam ab60866
# Description: The results are presented as IC50 values. Lapatinib served as the reference medication. Appendix A describes more experimental details.
# Lapatinib functioned as the reference drug. […]
# 4.2.5. HER-2 inhibitory assay
# The ADP-Glo™ Kinase Assay was used for kinase activity detection, related kinases information:
# HER-2 (ab60866, Abcam), with a concentration of 100 ng/mL. Target compounds were dissolved in DMSO to obtain drug solutions with different concentrations, and the compound concentrations in the final reaction system (100 μL) were 1 nM, 20 nM, 40 nM, 80 nM, and 100 nM, respectively. 10μL of the solution containing compounds was transferred to a 96-well plate, then added 40 μL of 1 × kinase buffer (50 mM HEPES, pH 7.5) to each well, and mixed the mixture in the 96-well plate on a shaker for 10 min. Next, added 25 μL of ADP-Glo™ reagent to the above wells, mixed and incubated for another 40 min. Distributed 10 μL kinase detection reagent to the reaction and incubated for 30 min. Finally, the full-wavelength microplate reader was used to record the OD value.
# 4.3. Statistical analysis
# Computerized Prism 5 program was used to statistically analyzed data using one-way ANOVA test followed by Tukey’s as post ANOVA for multiple comparison at P ≤.05. Data were presented as […]
# breast cancer (MCF-7) = assay: Antiproliferative assay, MCF-7; format: cell-based, human; settings: Homo sapiens, MCF7; MCF-7 breast cancer cell line; read-out: Antiproliferative activity IC50 ± SEM (nM) MCF-7
# Description: as §1, §2, §3
# EGFR [5] = molecular target: T1, EGFR; assay: EGFR-TK inhibitory assay
# [6] = test system: four human cancer cell lines (A-549, MCF-7, Panc-1, HT-29); assay: Antiproliferative assay, average over four cancer cell lines (GI50); format: cell-based; settings: for GI50: GI50 = mean IC50 against the four cancer cell lines
# Description: as §1
# To explore the antiproliferative potential of compounds propidium iodide fluorescence assay was performed using different cell lines such as Panc-1 (pancreas cancer cell line), MCF-7 (breast cancer […]
# calculate the total nuclear DNA, a fluorescent dye (propidium iodide, PI) is used which can attach to the DNA, thus offering a quick and precise technique. PI cannot pass through the cell membrane and its signal intensity can be considered as directly proportional to quantity of cellular DNA. Cells whose cell membranes are damaged or have changed permeability are counted as dead ones. The assay was performed by seeding the cells of different cell lines at a density of 3000-7500 cells/well (in 200μl […]
# atmospheric conditions. The medium was removed; the compounds were added to the plates at 10 μM concentrations (in 0.1% DMSO) in triplicates, followed by incubation for 48h. DMSO (0.1%) was used as control. After incubation, medium was removed followed by the addition of PI (25 μl, 50μg/mL in water/medium) to each well of the plates. At -80 °C, the plates were allowed to freeze for 24 h, followed by thawing at 25 °C. A fluorometer (Polar-Star BMG Tech) was used to record the readings at excitation and emission wavelengths of 530 and 620 nm for each well. The percentage cytotoxicity of compounds was calculated using the following formula:
# Where ATC= Absorbance of treated cells and AC= Absorbance of control. […]
# positive control in the assay. […]
# [7] = test system: pancreatic cancer (Panc-1); assay: Antiproliferative assay, Panc-1; format: cell-based; settings: Homo sapiens; Panc-1 pancreatic cancer cell line; read-out: Antiproliferative activity IC50 ± SEM (nM) Panc-1
# Description: as §1, §2, §3
# BRAF^V600E [8] = molecular target: BRAF^V600E (Mus musculus, UniProt P28028, V585E); assay: BRAF^V600E inhibitory assay
# BRAF^V600E [9] = assay: BRAF^V600E inhibitory assay; settings: ratio of BRAF^V600E IC50 versus erlotinib
# HER-2 [10] = molecular target: T2, HER-2; set-up: method as in PMID 39434991; settings: earlier study of the authors; read-out: HER-2 inhibitory IC50; cited from earlier work
# EGFR [11] = molecular target: T1, EGFR; set-up: 645–1186; His6 (N); made in house; host or cells: Sf-9 insect cells (baculovirus; pBlueBacHis2B / pFASTBacHTc); method as in PMID 39434991; settings: earlier study of the authors; read-out: EGFR inhibitory IC50; cited from earlier work
# BRAF^V600E [12] = test system: BRAF^V600E; set-up: method as in doi:10.1016/j.molstruc.2023.136953; settings: earlier study of the authors; cited from earlier work
# BRAF^V600E [13] = test system: BRAF^V600E; set-up: method as in PMID 33279248; settings: earlier study of the authors; cited from earlier work
# T1 sequence (P00533 669-1210): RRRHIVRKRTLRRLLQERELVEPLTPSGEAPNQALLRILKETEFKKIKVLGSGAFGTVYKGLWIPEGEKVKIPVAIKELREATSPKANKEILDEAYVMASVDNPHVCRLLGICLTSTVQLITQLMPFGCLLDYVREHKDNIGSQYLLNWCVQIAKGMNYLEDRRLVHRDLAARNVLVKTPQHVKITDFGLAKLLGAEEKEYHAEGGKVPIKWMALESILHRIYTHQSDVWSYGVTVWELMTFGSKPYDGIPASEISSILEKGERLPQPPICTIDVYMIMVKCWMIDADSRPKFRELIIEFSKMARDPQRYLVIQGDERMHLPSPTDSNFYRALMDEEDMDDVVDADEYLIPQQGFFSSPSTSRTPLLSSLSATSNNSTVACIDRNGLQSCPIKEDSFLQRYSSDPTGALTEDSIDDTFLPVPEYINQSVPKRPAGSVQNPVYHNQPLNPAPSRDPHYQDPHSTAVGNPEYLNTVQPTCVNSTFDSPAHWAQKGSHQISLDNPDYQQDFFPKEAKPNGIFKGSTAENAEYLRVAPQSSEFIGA
# T2 sequence (P04626 23-1255): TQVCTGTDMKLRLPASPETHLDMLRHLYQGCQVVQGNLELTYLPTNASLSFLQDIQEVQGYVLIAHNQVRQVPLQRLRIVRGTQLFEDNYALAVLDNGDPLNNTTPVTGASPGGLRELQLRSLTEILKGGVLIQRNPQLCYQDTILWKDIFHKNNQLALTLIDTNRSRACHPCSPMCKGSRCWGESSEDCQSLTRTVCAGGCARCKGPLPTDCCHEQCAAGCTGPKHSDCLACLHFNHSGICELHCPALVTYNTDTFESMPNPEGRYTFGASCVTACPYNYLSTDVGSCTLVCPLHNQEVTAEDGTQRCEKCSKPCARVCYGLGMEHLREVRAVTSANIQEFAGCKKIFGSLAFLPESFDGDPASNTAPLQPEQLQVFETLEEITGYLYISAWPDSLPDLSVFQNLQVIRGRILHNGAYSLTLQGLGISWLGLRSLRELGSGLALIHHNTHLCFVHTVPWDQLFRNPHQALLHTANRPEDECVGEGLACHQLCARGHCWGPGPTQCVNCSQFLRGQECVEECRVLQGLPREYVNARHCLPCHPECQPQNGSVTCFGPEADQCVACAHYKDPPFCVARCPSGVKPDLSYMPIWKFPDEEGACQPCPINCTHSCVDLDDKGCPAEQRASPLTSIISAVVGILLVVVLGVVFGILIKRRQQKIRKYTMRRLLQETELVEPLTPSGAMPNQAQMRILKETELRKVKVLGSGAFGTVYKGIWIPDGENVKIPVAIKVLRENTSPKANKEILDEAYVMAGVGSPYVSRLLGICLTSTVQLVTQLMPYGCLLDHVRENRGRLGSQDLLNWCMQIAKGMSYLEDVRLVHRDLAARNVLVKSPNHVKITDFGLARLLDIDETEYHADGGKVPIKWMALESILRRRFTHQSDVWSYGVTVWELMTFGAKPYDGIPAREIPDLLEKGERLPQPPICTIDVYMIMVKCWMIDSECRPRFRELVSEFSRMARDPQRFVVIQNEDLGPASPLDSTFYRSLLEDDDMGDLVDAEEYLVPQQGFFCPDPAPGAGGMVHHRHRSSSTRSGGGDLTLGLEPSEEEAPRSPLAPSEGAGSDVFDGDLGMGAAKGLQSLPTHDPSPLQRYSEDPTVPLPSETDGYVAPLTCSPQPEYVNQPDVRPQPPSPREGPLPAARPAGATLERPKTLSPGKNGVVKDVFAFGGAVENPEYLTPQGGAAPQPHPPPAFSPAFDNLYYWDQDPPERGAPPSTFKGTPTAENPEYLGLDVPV
# Chain of BRAF^V600E (Mus musculus, UniProt P28028, V585E) (P28028 whole entry V585E): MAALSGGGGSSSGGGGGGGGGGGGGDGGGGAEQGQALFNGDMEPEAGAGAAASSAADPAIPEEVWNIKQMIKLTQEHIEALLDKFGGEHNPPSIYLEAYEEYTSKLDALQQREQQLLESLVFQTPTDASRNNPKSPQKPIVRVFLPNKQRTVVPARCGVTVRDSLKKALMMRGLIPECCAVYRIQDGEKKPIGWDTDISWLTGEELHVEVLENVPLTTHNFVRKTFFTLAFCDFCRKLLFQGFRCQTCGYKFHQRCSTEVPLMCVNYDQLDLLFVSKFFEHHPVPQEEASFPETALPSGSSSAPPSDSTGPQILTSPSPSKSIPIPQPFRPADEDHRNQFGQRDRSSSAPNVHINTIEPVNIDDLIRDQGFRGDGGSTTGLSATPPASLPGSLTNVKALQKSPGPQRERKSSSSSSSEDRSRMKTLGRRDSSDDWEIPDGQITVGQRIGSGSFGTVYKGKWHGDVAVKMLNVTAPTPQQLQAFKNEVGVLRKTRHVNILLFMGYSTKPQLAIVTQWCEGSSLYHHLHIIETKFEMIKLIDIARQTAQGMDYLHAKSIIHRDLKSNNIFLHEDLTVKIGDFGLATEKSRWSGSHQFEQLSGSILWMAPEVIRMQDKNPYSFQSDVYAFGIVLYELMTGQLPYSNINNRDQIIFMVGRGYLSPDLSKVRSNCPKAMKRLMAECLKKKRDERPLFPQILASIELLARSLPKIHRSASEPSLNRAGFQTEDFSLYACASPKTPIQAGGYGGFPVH
# Chain of BRAF^V600E (P28028 whole entry V585E): as above
IC50 (lung cancer (A-549)) [nM],IC50 (colon cancer (HT-29)) [nM],IC50 (HER-2 [4]) [nM],IC50 (breast cancer (MCF-7)) [nM],IC50 (EGFR [5]) [nM],GI50 ([6]; Homo sapiens) [nM],IC50 [7] [nM],IC50 (BRAF^V600E [8]) [nM],"Fold reduced potency compared to erlotinib, BRAF^V600E (BRAF^V600E [9]) [fold]",Compound,GI50 [2] [nM],"viability at 4 days, 50 µM [3] [%]",other results
–,–,–,–,–,–,–,–,–,CC(=NO)c1ccc(NC(=O)c2cc(-c3ccc(S(C)(=O)=O)cc3)nc3ccccc23)cc1 [Compound II],1200,–,IC50 (EGFR [1]): 105 ± 10 nM
28 ± 2,29 ± 2,23 ± 1,26 ± 2,75 ± 4,26,29 ± 2,67 ± 3,1.1,"COc1ccc(C2C(C#N)=C(N)Oc3c2c(=O)[nH]c2ccc(OC)cc32)cc1 (stereo not drawn) [Compound 5h, 2-Amino-9-methoxyl-4-(4-methoxylphenyl)-5-oxo-5,6-dihydro-4H-pyrano[3,2-c]quinoline-3-carbonitrile]",–,91,"GI50 [6]: 28 nM; Times more effective than erlotinib (GI50) ([6]; ratio of GI50 versus erlotinib, four cancer cell lines): 1.25 fold"
–,–,–,–,–,–,–,–,–,O=c1[nH]c2ccccc2c(O)c1/C=N/c1ccc(NS(=O)(=O)c2ncccn2)cc1 [Compound I],–,–,IC50 (HER-2 [10]): 31 nM; IC50 (EGFR [11]): 71 nM
30 ± 2,33 ± 2,31 ± 2,27 ± 2,78 ± 4,30,31 ± 2,74 ± 4,1.3,"COc1ccc(C2C(C#N)=C(N)Oc3c2c(=O)n(C)c2ccccc32)cc1 (stereo not drawn) [Compound 5i, 2-Amino-6-methyl-4-(4-methoxylphenyl)-5-oxo-5,6-dihydro-4H-pyrano[3,2-c]quinoline-3-carbonitrile]",–,90,–
–,–,–,–,–,–,–,–,–,COc1cccc2c1C(=O)c1c(O)c3c(c(O)c1C2=O)C[C@@](O)(C(=O)CO)C[C@@H]3O[C@H]1C[C@H](N)[C@H](O)[C@H](C)O1 [doxorubicin],1400,–,–

Compound,IC50 (lung cancer (A-549)) [nM],IC50 (colon cancer (HT-29)) [nM],IC50 (HER-2 [4]) [nM],IC50 (breast cancer (MCF-7)) [nM],IC50 (EGFR [5]) [nM],GI50 ([6]; Homo sapiens) [nM],IC50 [7] [nM],IC50 (BRAF^V600E [8]) [nM],"Fold reduced potency compared to erlotinib, BRAF^V600E (BRAF^V600E [9]) [fold]",GI50 [2] [nM],"viability at 4 days, 50 µM [3] [%]",other results
"C#Cc1cccc(Nc2ncnc3cc(OCCOC)c(OCCOC)cc23)c1 [Erlotinib, reference compound]",30 ± 3,30 ± 3,–,40 ± 3,–,–,30 ± 3,–,–,–,–,IC50 (BRAF^V600E [12]): […]; IC50 (BRAF^V600E [13]): […]

# Source: article PMC12517401, “Design, synthesis, and antiproliferative activity of new 2-amino-pyrano[3,2-c]quinoline-3-carbonitriles as potential EGFR, BRAF^V600E, and HER-2 inhibitors” (RSC Advances, 2025)
